Assay [1] has as its target Human cytomegalovirus DNA polymerase (Human cytomegalovirus (strain AD169) (HHV-5) (Human herpesvirus 5), UniProt P08546). Kind of assay: CMV polymerase assay (AlphaLISA). Conditions: HCMV polymerase 0.2 nM, 30 min pre-incubation, 60 minute at 37° C. The assay is classed as biochemical. As to the method: (§1) Human cytomegalovirus and varicella zoster virus DNA polymerases were expressed via baculovirus vector in SF21 cells and purified. Heterodimeric nucleic acid substrate used in the herpesvirus polymerase reactions were generated by annealing a 59-mer template to a 17-mer digoxigenin-labeled primer. Polymerase (HCMV final concentration of 0.2 nM; VZV final concentration of 0.4 nM) was combined with an inhibitor compound or DMSO in assay buffer (10 mM HEPES, pH 7.5, 25 mM KCl, 25 mM NaCl, 5 mM MgCl2, 5% glycerol, 0.67 mg/ml bovine serum albumin, and 1 mM tris(2-carboxyethyl)phosphine)), and this mixture was pre-incubated for 30 minutes at room temperature in 384-well microtiter plates. The polymerization reaction was initiated by the addition of template/primer substrate (final concentration: 1.6 nM), and dNTPs (final concentration: 24 nM dCTP, 24 nMdGTP, 16 nM dATP, 16 nM dTTP, and 0.8 nM biotin-dUTP). After a 60 minute incubation period at 37° C., the reactions were terminated using quench buffer (25 mM HEPES pH 7.5, 100 mM NaCl, 0.25% Tween-20, 12 mM EDTA, and 1 mg/ml bovine serum albumin). Incorporation of biotinylated UTP was detected with 2.5-5 μg/mL anti-DIG AlphaLISA acceptor beads and 5-10 μg/mL streptavidin AlphaLISA donor beads (PerkinElmer). Compound effects were normalized to the window defined by the controls (DMSO only and pre-quenched wells), and were fit using a 4-parameter algorithm to report an IC50.

The target in assay [2] is varicella zoster virus DNA polymerase (Varicella-zoster virus (strain Dumas) (HHV-3) (Human herpesvirus 3), UniProt P09252). Nature of the assay: VZV polymerase assay (AlphaLISA). Type of assay: biochemical. Conditions: VZV polymerase 0.4 nM, 30 min pre-incubation, 60 minute at 37° C. As to the method: as §1
(Bead proximity is the source of the signal in Alpha formats.)

Assay [3] has as its system CMV. Nature of the assay: Viral qPCR assay, CMV. Type of assay: cell-based. Conditions: infected cells, viral genome copies by qPCR normalized to PPIA, read-out: CMV Cell EC50. Summed up: (§2)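 Cells (MRC5/Vero/MeWo) + virus → onto compound plates, 10-pt 3-fold dilutions; ~72 hrs, 37° C, 5% CO2. Lysis with NP-40/Tween-20/proteinase K, 56° C 1 h, then 95° C 10 min. qPCR of viral gene vs PPIA, copies from plasmid standards. 4-parameter EC50.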
A general note: Quantitative PCR measures a nucleic acid by following its amplification.

For assay [4], the system named is HSV1. Kind of assay: Viral qPCR assay, HSV1. The assay is classed as cell-based. As to conditions: infected cells, viral genome copies by qPCR normalized to PPIA, read-out: HSV1 Cell EC50. A digest of the protocol:
as §2

For assay [5], the system named is HSV2. Nature of the assay: Viral qPCR assay, HSV2. The assay is classed as cell-based. Conditions: infected cells, viral genome copies by qPCR normalized to PPIA, read-out: HSV2 Cell EC50. Summed up: as §2

Here are results for 25 compounds from patent publication US12497405B2, “Bicyclic heterocycle compounds methods of use thereof for the treatment of herpes viruses” (Merck Sharp & Dohme LLC, priority 2019, dated 2025).

Molecules are shown by their SMILES. Where two headings read alike, the source gives them in different places.

Usually IC50 stands for the concentration that gives 50% inhibition. The low end stands for greater potency, the high end for weaker potency. For orientation: EC50 means the concentration needed to bring the measured effect to its halfway point. As for `COc1nc2cc(-c3cnco3)c(O[C@H]3CCN4C(=O)OC[C@@H]4C3)cc2c(=O)n1Cc1ccc(C#N)cc1` [Example 9], the IC50 in assay [1] and in assay [2] was 0.44 nM each time. For the same compound, the EC50 in assay [3] (~72 hrs) is 35 nM; in assay [4] (~72 hrs) it was 20 nM; in assay [5] (~72 hrs) it was 13 nM.
Take `N#Cc1ccc(Cn2c(=O)[nH]c3cc(-c4cnco4)c(O[C@H]4CCN5C(=O)OC[C@@H]5C4)cc3c2=O)cc1` [Example 10]: the IC50 in assay [1] came out at 0.24 nM; in assay [2] it was 0.28 nM. Also, the results for the EC50 in assay [3] (~72 hrs), in assay [4] (~72 hrs) and in assay [5] (~72 hrs) were 70 nM, 109 nM and 68 nM, respectively.
As to `Cc1nc2cc(-c3ccn(C(F)F)n3)c(O[C@H]3CCN4C(=O)OC[C@@H]4C3)cc2c(=O)n1Cc1ccc(C#N)cc1` [Example 11], the IC50 in assay [1] was determined as 0.55 nM; in assay [2] it was 2.5 nM. Also, the EC50 worked out at 54 nM in assay [3] (~72 hrs), 51 nM in assay [4] (~72 hrs) and 35 nM in assay [5] (~72 hrs).
Taken in the same sequence, the figures for `Cc1nc2cc(-c3cn(C(F)F)nn3)c(O[C@H]3CCN4C(=O)OC[C@@H]4C3)cc2c(=O)n1Cc1ccc(Cl)cc1` [Example 12] were 0.47 nM, 0.47 nM, 112 nM, 73 nM and 61 nM.
For the compound `Cc1nc2cc(-c3ccn(C(F)F)n3)c(O[C@H]3CCN4C(=O)OC[C@@H]4C3)cc2c(=O)n1Cc1ccc(Cl)cc1` [Example 13], the IC50 is 1 nM in assay [1] and 3.5 nM in assay [2]. Also, the EC50 was found to be 49 nM in assay [3] (~72 hrs), 37 nM in assay [4] (~72 hrs) and 38 nM in assay [5] (~72 hrs).
For the compound `COc1ccc(-c2cc3nc(C)n(Cc4ccc(Cl)cc4)c(=O)c3cc2O[C@H]2CCN3C(=O)OC[C@@H]3C2)nn1` [Example 14], the IC50 in assay [1] was found to be 13 nM; in assay [2], 14 nM. Moreover, the EC50 in assay [3] (~72 hrs) amounted to 280 nM; in assay [4] (~72 hrs), 374 nM; in assay [5] (~72 hrs), 268 nM.
For the compound `CC(=O)N1CCC(Oc2ccc3ccn(Cc4ccc(Cl)cc4)c(=O)c3c2)CC1` [Example 22], the IC50 in assay [1] came to 386 nM; in assay [2] it was 71 nM. Besides, the EC50 in assay [3] (Human betaherpesvirus 5, 72 h) was 4240 nM; in assay [4] (Human alphaherpesvirus 1, 72 h), 5630 nM; in assay [5] (Human alphaherpesvirus 2, 72 h), 4280 nM.
The matching figures for `O=C1OC[C@@H]2C[C@@H](Oc3ccc4ccn(Cc5ccc(Cl)cc5)c(=O)c4c3)CCN12` [Example 23]: 40 nM, 26 nM, 482 nM, 1320 nM and 961 nM.
The matching figures for `O=C1OC[C@@H]2C[C@@H](Oc3ccc4ncn(Cc5ccc(Cl)cc5)c(=O)c4c3)CCN12` [Example 24]: 27 nM, 35 nM, 216 nM, 501 nM and 342 nM.
The matching figures for `O=C1OC[C@@H]2C[C@@H](Oc3cnc4ccn(Cc5ccc(Cl)cc5)c(=O)c4c3)CCN12` [Example 25]: 76 nM, 55 nM, 569 nM, 1310 nM and 730 nM.
For the compound `Cc1cc2ccn(Cc3ccc(Cl)cc3)c(=O)c2cc1O[C@H]1CCN2C(=O)OC[C@@H]2C1` [Example 26], the IC50 in assay [1] came out at 13 nM; in assay [2], 18 nM. Moreover, the EC50 in assay [3] (Human betaherpesvirus 5, 72 h) worked out at 298 nM; in assay [4] (Human alphaherpesvirus 1, 72 h), 673 nM; in assay [5] (Human alphaherpesvirus 2, 72 h), 356 nM.
The matching figures for `O=C1OC[C@@H]2C[C@@H](Oc3cc4c(=O)n(Cc5ccc(Cl)cc5)ccc4cc3-c3cnn(C(F)F)c3)CCN12` [Example 27]: 5.3 nM, 5.9 nM, 114 nM, 124 nM and 59 nM.
Consider `O=C1OC[C@@H]2C[C@@H](Oc3cnc4ncn(Cc5ccc(Cl)cc5)c(=O)c4c3)CCN12` [Example 28], for which the figures for the IC50 in assay [1] and in assay [2] were 48 nM and 60 nM, respectively. The EC50 in assay [3] (Human betaherpesvirus 5, 72 h) is 500 nM; in assay [4] (Human alphaherpesvirus 1, 72 h), 1250 nM; in assay [5] (Human alphaherpesvirus 2, 72 h), 884 nM.
Taken in the same sequence, the figures for `O=C1OC[C@@H]2C[C@@H](Oc3cc4c(=O)n(Cc5ccc(Cl)cc5)ccc4nc3-c3cnn(C(F)F)c3)CCN12` [Example 31] were 3 nM, 2.1 nM, 101 nM, 139 nM and 46 nM.
The matching figures for `CC(C)(N)Cc1cc2ccn(Cc3ccc(Cl)cc3)c(=O)c2cc1O[C@H]1CCN2C(=O)OC[C@@H]2C1` [Example 32]: 15 nM, 33 nM, 392 nM, 772 nM and 402 nM.
For the compound `CC(C)(O)Cc1cc2ccn(Cc3ccc(Cl)cc3)c(=O)c2cc1O[C@H]1CCN2C(=O)OC[C@@H]2C1` [Example 34], the IC50 in assay [1] is 2.1 nM; in assay [2] it was 1.4 nM. The EC50 in assay [3] (Human betaherpesvirus 5, 72 h) turned out to be 74 nM; in assay [4] (Human alphaherpesvirus 1, 72 h), 110 nM; in assay [5] (Human alphaherpesvirus 2, 72 h), 81 nM.
Taken in the same sequence, the figures for `O=C1OC[C@@H]2C[C@@H](Oc3cc4c(=O)n(Cc5ccc(Cl)cc5)cnc4nc3-c3cnn(C(F)F)c3)CCN12` [Example 36] were 1.9 nM, 1.5 nM, 37 nM, 49 nM and 28 nM.
Taken in the same sequence, the figures for `O=C1OC[C@@H]2C[C@@H](Oc3cc4c(=O)n(Cc5ccc(Cl)cc5)ccc4nc3-c3cnco3)CCN12` [Example 38] were 1.1 nM, 0.33 nM, 24 nM, 48 nM and 28 nM.
Taken in the same sequence, the figures for `COc1nc2ccn(Cc3ccc(Cl)cc3)c(=O)c2cc1O[C@H]1CCN2C(=O)OC[C@@H]2C1` [Example 39] were 28 nM, 41 nM, 520 nM, 1340 nM and 952 nM.
In the case of `Cc1nc2ccc(O[C@H]3CCN4C(=O)OC[C@@H]4C3)cc2c(=O)n1Cc1ccc(Cl)cc1` [Example 40], the IC50 in assay [1] is 11 nM; in assay [2] it was 17 nM. Also, the EC50 in assay [3] (Human betaherpesvirus 5, 72 h) stood at 157 nM; in assay [4] (Human alphaherpesvirus 1, 72 h), 386 nM; in assay [5] (Human alphaherpesvirus 2, 72 h) it was 304 nM.
Taken in the same sequence, the figures for `N#Cc1cc2ncn(Cc3ccc(Cl)cc3)c(=O)c2cc1O[C@H]1CCN2C(=O)OC[C@@H]2C1` [Example 41] were 2.7 nM, 1.1 nM, 77 nM, 131 nM and 75 nM.
With `O=C1OC[C@@H]2C[C@@H](Oc3cc(-c4cnco4)c4ncn(Cc5ccc(Cl)cc5)c(=O)c4c3)CCN12` [Example 42], the IC50 in assay [1] was 21 nM; in assay [2] it was 13 nM. For the same compound, the EC50 amounted to 181 nM in assay [3] (Human betaherpesvirus 5, 72 h); 233 nM in assay [4] (Human alphaherpesvirus 1, 72 h); 92 nM in assay [5] (Human alphaherpesvirus 2, 72 h).
The matching figures for `CC(C)(O)Cc1nc2ncn(Cc3ccc(Cl)cc3)c(=O)c2cc1O[C@H]1CCN2C(=O)OC[C@@H]2C1` [Example 45]: 11 nM, 25 nM, 269 nM, 268 nM and 309 nM.
Taken in the same sequence, the figures for `O=C1OC[C@@H]2C[C@@H](Oc3cc(CO)c4ncn(Cc5ccc(Cl)cc5)c(=O)c4c3)CCN12` [Example 46] were 24 nM, 20 nM, 174 nM, 423 nM and 334 nM.
For `CC(C)(O)Cc1cc(O[C@H]2CCN3C(=O)OC[C@@H]3C2)cc2c(=O)n(Cc3ccc(Cl)cc3)cnc12` [Example 48], the IC50 in assay [1] was determined as 42 nM; in assay [2], 37 nM. Also, the EC50 in assay [3] (Human betaherpesvirus 5, 72 h) was 273 nM; in assay [4] (Human alphaherpesvirus 1, 72 h), 701 nM; in assay [5] (Human alphaherpesvirus 2, 72 h) it was 645 nM.
